From patent US20080076729A1, “Interferon-beta gene therapy using an improved, regulated expression system” (Schering Aktiengesellachaft, priority 2005, published 2008)

Assays:
IP-10 = IP-10 chemokine level in plasma/serum of treated mice by ELISA; format: in vivo
Protocol: FIG. 7 illustrates induction levels of IP-10 (A) and JE (B) following i.v. or i.m. injection of murine IFN-β protein. C57BL/6 mice were administered 15, 150, or 500 ng of purified recombinant mIFN-β protein (specific activity=2.0×10^8 units/mg) by either i.v. (via tail vein) or i.m. injection (n=3 mice per group). The mice were bled at 2, 4, 6, 12, 24, and 48 hours post-injection, and the plasma levels of IP-10 and JE were measured by ELISA (R&D Systems).
FIG. 8 illustrates the induction of IP-10 following intramuscular injection of AAV-1-mIFN-β DNA or mIFN-β plasmid DNA with electroporation (EP) in mice. […] Mice were bled at the indicated time points and IP-10 levels in plasma were determined by ELISA. […]
• A. Development of mIFN-β Biomarkers: For higher sensitivity in detection of murine IFN-β (mIFN-β) activity in vivo, biomarkers for mIFN-β activity were identified in mice after injection of mIFN-β protein or mIFN-β encoded gene therapy vectors. […] In the present study, the expression of the MxA mouse homologue, Mx1, (see e.g., Hug, H et al. Mol Cell Biol 8: 3065-79; Pavlovic, J (1993) Ciba Found Symp 176: 233-43) isolated from murine peripheral blood monocytes (PBMC's) was used to detect the presence of biologically active mIFN-β. • A quantitative PCR/RT-PCR assay was developed to quantitate the levels of Mx1 mRNA in murine PBMC's. […]

SJL mice with acute EAE = assay: Mouse acute EAE model, daily clinical scoring; format: in vivo

mIFN-β: purified recombinant murine interferon-beta protein
time by which plasma IP-10 dropped to background (IP-10; bolus protein, each of three doses): ≤ 24 h
IP-10 levels increase (IP-10; high dose (500 ng) delivered i.v., 2 hours): 3000 fold
clinical scores of EAE compared to vehicle treated mice (SJL mice with acute EAE; 30,000 units s.c. every other day, first study): did not reach statistical significance
clinical scores of EAE compared to vehicle control (SJL mice with acute EAE; 100,000 Units s.c. every other day, second study (FIG. 12)): significantly decreased clinical scores
severity of the disease (clinical scores) compared to vehicle treated animals (SJL mice with acute EAE; 100,000 or 300,000 units SC every other day, 25 day study (FIG. 39A)): significantly reduced the severity of the disease
clinical scores of EAE compared with vehicle treated mice (SJL mice with acute EAE; 100,000 units s.c. every other day, first study (FIG. 11)): significantly decreased clinical scores
